Reference: BigSolDB 2.1

O=C(O)c1ccco1
solubility (mole fraction)
Conditions | in 1,2-dichloroethane | in MIBK | in acetonitrile | in diisopropyl ether | in methanol | in n-hexane | in toluene
283.15 K | 0.014 | 0.095 | 0.046 | 0.035 | 0.347 | – | 0.005
288.15 K | 0.017 | 0.11 | 0.057 | 0.041 | 0.393 | – | 0.006
293.15 K | 0.023 | 0.122 | 0.064 | 0.048 | 0.428 | – | 0.008
298.15 K | 0.029 | 0.137 | 0.077 | 0.054 | 0.451 | 0.001 | 0.011
303.15 K | 0.035 | 0.154 | 0.093 | 0.061 | 0.48 | 0.001 | 0.013
308.15 K | 0.046 | 0.177 | 0.115 | 0.069 | 0.504 | 0.001 | 0.017
313.15 K | 0.057 | 0.195 | 0.132 | 0.077 | 0.524 | 0.002 | 0.021
318.15 K | 0.068 | 0.211 | 0.155 | 0.087 | 0.551 | 0.002 | 0.027
323.15 K | 0.084 | 0.237 | 0.182 | 0.097 | 0.571 | 0.003 | 0.034
328.15 K | 0.103 | 0.26 | 0.208 | 0.108 | 0.607 | 0.004 | 0.045
333.15 K | 0.126 | 0.286 | 0.242 | 0.121 | 0.643 | 0.005 | 0.056
